Experimental data from patent US20050130134A1, “Means and methods for monitoring non-nucleoside reverse transcriptase inhibitor antiretroviral therapy and guiding therapeutic decisions in the treatment HIV-AIDS” (ViroLogic, Inc., priority 2000, published 2005).

Experiments:
[1] = test system: RTV-268 patient virus (RT P236L with M41L, D67N, M184V, L210W, T215Y, K219Q); assay: Phenotypic susceptibility assay, RTV-268 (patient 97-268); type: cell-based, HIV-1; conditions: RTV-268 patient virus compared to reference virus
Description: Resistance tests were carried out with resistance test vectors using two host cell types. Resistance test vector viral particles were produced by a first host cell (the resistance test vector host cell) that was prepared by transfecting a packaging host cell with the resistance test vector and the packaging expression vector. The resistance test vector viral particles were then used to infect a second host cell (the target host cell) in which the expression of the indicator gene is measured.
The resistance test vectors containing a functional luciferase gene cassette were constructed and host cells were transfected with the resistance test vector DNA. The resistant test vectors contained patient-derived reverse transcriptase and protease sequences that were either susceptible or resistant to the antiretroviral agents, such as nucleoside reverse transcriptase inhibitors, non-nucleoside reverse transcriptase inhibitors and protease inhibitors. The resistance test vector viral particles produced by transfecting the resistance test vector DNA into host cells, either in the presence or absence of protease inhibitors, were used to infect target host cells grown either in the absence of NRTI or NNRTI or in the presence of increasing concentrations of the drug. The amount of luciferase activity produced in infected target host cells in the presence of drug was compared to the amount of luciferase produced in infected target host cells in the absence of drug. Drug resistance was measured as the amount of drug required to inhibit by 50% the luciferase activity detected in the absence of drug (inhibitory concentration 50%, IC50). The IC50 values were determined by plotting percent drug inhibition vs. log10 drug concentration.
Host cells were seeded in 10-cm-diameter dishes and were transfected several days after plating with resistance test vector plasmid DNA and the envelope expression vector. Transfections were performed using a calcium-phosphate precipitation procedure. The cell culture media containing the DNA precipitate was replaced with fresh medium, from one to 24 hours, after transfection. Cell culture media containing resistance test vector viral particles was harvested one to four days after transfection and was passed through a […] filter before being stored at −80° C. HIV capsid protein (p24) levels in the harvested cell culture media were determined by an EIA method as described by the manufacturer (SIAC; Frederick, Md.). Before infection, target cells (293 and 293/T) were plated in cell culture media. Control infections were performed using cell culture media from mock transfections (no DNA) or transfections containing the resistance test vector plasmid DNA without the envelope expression plasmid. One to three or more days after infection the media was removed and cell lysis buffer (Promega) was added to each well. […] The inhibitory effect of the drug was determined using the following equation: % luciferase inhibition=1-(RLUluc[drug]÷RLUluc)×100 where RLUluc [drug] is the relative light unit of luciferase activity in infected cells in the presence of drug and RLUluc is the Relative Light Unit of luciferase activity in infected cells in the absence of drug. IC50 values were obtained from the sigmoidal curves that were generated from the data by plotting the percent inhibition of luciferase activity vs. the log10 drug concentration.
A resistance test vector was constructed as described in Example 1 from a patient sample designated 97-268. […] Isolation of viral RNA and RT/PCR was used to generate a patient derived segment that comprised viral sequences coding for all of PR and amino acids 1-313 of RT. The patient derived segment was inserted into a indicator gene viral vector to generate a resistance test vector designated RTV-268.

[2] = test system: Tyr181Cys (Y181C) mutation of HIV RT; conditions: cited from earlier work
[3] = test system: T66I integrase site-directed mutant; assay: Phenotypic susceptibility assay, integrase T66I mutated resistance test vector; type: cell-based, HIV; conditions: T66I integrase mutant, FIG. 10
Description: Transfections were performed using a calcium-phosphate precipitation procedure. […] Cell lysates were assayed for luciferase activity (FIG. 3). […] The drug inhibition curves are shown in (FIG. 3).
A resistance test vector containing the threonine to isoleucine mutation at position 66 of the integrase protein (T66I) was constructed and tested using the phenotypic assay described earlier.

Compound: Nc1ccn([C@@H]2CS[C@H](CO)O2)c(=O)n1 [3TC]
- change in susceptibility / resistance [1]: significant resistance

Compound: Cc1cn([C@H]2C[C@H](N=[N+]=[N-])[C@@H](CO)O2)c(=O)[nH]c1=O [AZT]
- change in susceptibility / resistance [1]: significant resistance

Compound: CCc1cc(CCc2nc3ccccc3o2)c(=O)[nH]c1C [L-696,229]
- change in susceptibility [2]: reduced susceptibility

Compound: CCc1cc(NCc2nc3c(Cl)ccc(Cl)c3o2)c(O)nc1C [L-697,661]
- change in susceptibility [2]: reduced susceptibility

Compound: O=C(O)C(=O)CC(=O)c1cccn1Cc1ccc(F)cc1 [L-731,988]
- reduction in susceptibility compared to wild type control RTV [3]: 4.7 fold

Compound: Cc1cn([C@H]2C=C[C@@H](CO)O2)c(=O)[nH]c1=O [d4T]
- change in susceptibility / resistance [1]: slight shifts in susceptibility

Compound: Nc1ccn([C@H]2CC[C@@H](CO)O2)c(=O)n1 [ddC]
- change in susceptibility / resistance [1]: slight shifts in susceptibility

Compound: O=c1[nH]cnc2c1ncn2[C@H]1CC[C@@H](CO)O1 [ddI]
- change in susceptibility / resistance [1]: slight shifts in susceptibility
